test: Transmittance at 860 nm of the product dissolved in chloroform; assay type: physicochemical; conditions: 860 nm; chloroform; product/chloroform=4 mg/100 ml
Source text: In order to use colorants consisted in such optical filters, fairly high purity is required. However conventional near infrared rays absorbing colorants have low purity and inadequate absorption characteristics and thus can scarecely be used. Particularly in case of a 1,4,5,8-tetraanilidoanthraquinone, the allowable limit of its transmittance in the vicinity of 860 nm is at a level of about 95 to about 96% (a concentration of the dissolved colorant at the time of the transmittance measurement is 4 mg per 100 ml of chloroform). If its transmittance is below this level, the transmission of semiconductor laser beams is hindered noticeably, and therefore it is difficult to use such a colorant as a near infrared rays absorbing filter for measuring equipment and the like where particularly high accuracy is required.
(§1) In general, laser beams used for the near infrared rays absorbing filters have a wavelength of 830 nm or more, but the wavelength depends upon use applications. In the examples described following, the most usual wavelength of about 860 nm was used to measure the transmittance of compounds represented by the formula (I), and the estimation was made by comparing absorption wave shapes.
A mixture of 10.87 parts of 99%-purity 1,4,5,8-tetrachloroanthraquinone recrystallized from chlorobenzene, 27.2 parts of p-toluidine, 31.3 parts of p-chloroaniline, 13.4 parts of potasssium acetate, 1.24 parts of copper sulfate and 3.41 parts of benzyl alcohol was heated 130° C. under a nitrogen gas flow and the reaction mixture was then maintained at this temperature for 6.5 hours. Afterward, the reaction mixture was cooled to 70° C. and was then poured into 217 parts of ethanol, followed by filtration, ethanol washing, water washing and drying. The resultant crude product was then subjected to recrystallization from pyridine, thereby obtaining 14.2 parts of desired 1-(p-chloroanilido)-4,5,8-tris(p-methylanilido)anthraquinone (yield=70%) in high purity. By the use of a high-speed liquid chromatography (made by Shimadzu Seisakusho Ltd., SHIM-PACK CLC-ODS column, acetonitrile development, detection at 254 nm), it was confirmed that the purity of the product was 99.5%. In addition, the transmittance at 860 nm of the product in chloroform was 99% (product/chloroform=4 mg/100 ml).
The same procedure as in Example 1 or 3 was repeated to synthesize the compounds shown in Table 1, and yield, purity and transmittance at 860 nm of each product were then measured. The respective substituents A, B, C and D in the table correspond to those of formula (I).
*The transmittance was measured at 860 nm in chloroform.

| Structure (SMILES) | transmittance at 860 nm of the product in chloroform |
| --- | --- |
| Cc1ccc(Nc2ccc(Nc3ccc(C)cc3)c3c2C(=O)c2c(Nc4ccc(C)cc4)ccc(Nc4ccc(C)cc4)c2C3=O)cc1 [Comparative Example 1, 1,4,5,8-tetrakis(p-methylanilido)anthraquinone, reference compound] | 99% |
| CCCCc1ccc(Nc2ccc(Nc3ccc(Cl)cc3)c3c2C(=O)c2c(Nc4ccc(CCCC)cc4)ccc(Nc4ccc(CCCC)cc4)c2C3=O)cc1 [Example 2, 1-(p-chloroanilido)-4,5,8-tris(p-n-butylanilido)anthraquinone] | 99.2% |

Results, then the molecule that gave them:

| transmittance at 860 nm of the product in chloroform | Structure (SMILES) |
| --- | --- |
| 99.6% | Cc1ccc(Nc2ccc(Nc3ccc(C)cc3)c3c2C(=O)c2c(Nc4ccc(Cl)cc4)ccc(Nc4ccc(Cl)cc4)c2C3=O)cc1 [Example 3, 1,4-bis(p-chloroanilido)-5,8-bis(p-methylanilido)anthraquinone] |
| 99% | Cc1ccc(Nc2ccc(Nc3ccc(C)cc3)c3c2C(=O)c2c(Nc4ccc(C)cc4)ccc(Nc4ccc(Cl)cc4)c2C3=O)cc1 [Example 1, 1-(p-chloroanilido)-4,5,8-tris(p-methylanilido)anthraquinone] |

same assay, conditions: measured at 860 nm in chloroform (Table 1)

| Structure (SMILES) | Transmittance* |
| --- | --- |
| COc1ccc(Nc2ccc(Nc3ccc(OC)cc3)c3c2C(=O)c2c(Nc4ccc(OC)cc4)ccc(Nc4cccc(F)c4)c2C3=O)cc1 [Example 12] | 99.6% |
| COc1ccc(Nc2ccc(Nc3ccc(Cl)cc3)c3c2C(=O)c2c(Nc4ccc(OC)cc4)ccc(Nc4ccc(OC)cc4)c2C3=O)cc1 [Example 5] | 98.9% |
| Cc1ccc(Nc2ccc(Nc3ccc(C)cc3)c3c2C(=O)c2c(Nc4ccc(C)cc4)ccc(Nc4cccc(Br)c4)c2C3=O)cc1 [Example 11] | 98.2% |
| O=C1c2c(Nc3ccccc3)ccc(Nc3ccccc3)c2C(=O)c2c(Nc3ccc(Cl)cc3)ccc(Nc3ccccc3)c21 [Example 4] | 98.8% |
| Cc1ccc(Nc2ccc(Nc3ccc(C)cc3)c3c2C(=O)c2c(Nc4ccc(C)cc4)ccc(Nc4ccc(F)cc4)c2C3=O)cc1 [Example 10] | 99.2% |

More lines, now with the values ahead:

| Transmittance* | Structure (SMILES) |
| --- | --- |
| 99.1% | Cc1ccc(Nc2ccc(Nc3ccc(C4CCCCC4)cc3)c3c2C(=O)c2c(Nc4ccc(Br)cc4)ccc(Nc4ccc(C5CCCCC5)cc4)c2C3=O)cc1 [Example 13] |
| 99.2% | O=C1c2c(Nc3ccc(Cl)cc3)ccc(Nc3ccc(C4CCCCC4)cc3)c2C(=O)c2c(Nc3ccc(C4CCCCC4)cc3)ccc(Nc3ccc(C4CCCCC4)cc3)c21 [Example 7] |
| 98.5% | O=C1c2c(Nc3ccc(O)cc3)ccc(Nc3ccc(O)cc3)c2C(=O)c2c(Nc3ccc(Cl)cc3)ccc(Nc3ccc(Cl)cc3)c21 [Example 8] |
| 99.5% | Cc1ccc(Nc2ccc(Nc3ccc(Cl)cc3)c3c2C(=O)c2c(Nc4ccc(C5CCCCC5)cc4)ccc(Nc4ccc(C)cc4)c2C3=O)cc1 [Example 9] |
| 100% | O=C1c2c(Nc3ccc(Cl)cc3)ccc(Nc3ccc(Cl)cc3)c2C(=O)c2c(Nc3ccc(Cl)cc3)ccc(Nc3ccc(Cl)cc3)c21 [Example 6] |

test: Transmittance-versus-wavelength curve in chloroform (FIG. 1), judged as a near infrared filter; assay type: physicochemical; conditions: curve 3 of FIG. 1
Source text: FIG. 1 is a graph illustrating transmittance to wavelength of a solution in chloroform of the compounds of Examples 1 and 3 and Comparative Example 1, in which carves 1, 2 and 3 are the absorption curves of the compounds of Example 1, Example 3 and Comparative Example i respectively.
In the anthraquinone of present invention, at least one of four anilido benzene rings is substituted by a halogen atom such as chlorine, fluorine and bromine, which preferably is in the p-position. The anthraquinone bearing a halogen atom realizes a wave shape of the light absorption of the absorption curves of these compounds render them very suitable for near infrared rays absorbing filters. That is, the anthraquinone bearing a halogen atom can mostly absorb the light in the wavelength range of 700 to 800 nm and realize the transmittance curve which is steeper slope in vicinity of 800 nm than one of other anthraquinone bearing no halogen atom.
as §1, with “shapes. […]” for “shapes.”

| transmission of the product in a 800-830 wavelength range | Structure (SMILES) |
| --- | --- |
| poor | Cc1ccc(Nc2ccc(Nc3ccc(C)cc3)c3c2C(=O)c2c(Nc4ccc(C)cc4)ccc(Nc4ccc(C)cc4)c2C3=O)cc1 [Comparative Example 1, 1,4,5,8-tetrakis(p-methylanilido)anthraquinone, reference compound] |

Source: patent publication US5342974A, “Halogenated anthraquinone and their use as near infrared rays absorbing optical filters” (Mitsui Toatsu Chemicals, Incorporated, priority 1987, dated 1994)
